Assays:
[1] = system: CMV promoter in 293-EBNA cells; assay: AP reporter gene expression from CMV promoter, 293-EBNA cells stably transfected with pCMV.AP; type: cell-based, human cytomegalovirus; human cells
How it was run: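 293-EBNA cells carrying episomal pCMV.AP, expressing secreted placental alkaline phosphatase from the CMV enhancer/promoter, treated with various compound concentrations. Reporter expression read as change in A405 of conditioned medium with substrate such as ortho-nitrophenol phosphate.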

[2] = system: HIV-1 strain JR-CSF in PBL; assay: HIV-1 p24 antigen expression in acutely infected peripheral blood lymphocytes (PBL); type: cell-based, HIV-1; human cells; details: Human immunodeficiency virus 1, Lymphocyte, clinical isolate
Protocol: FIG. 17 illustrates a dose response curves of CT2576 on constitutive, TNF-α, and IL-6-mediated expression of HIV-1 in a chronically infected U1 cell line (left Y-axis) and of CT3537 on HIV expression in PBL acutely infected with the JR-CSF primary isolate (right Y-axis). U1 cells were incubated for four days after the addition of CT2576 with or without TNF-α (20 pg/ml) or IL-6 (1 ng/ml). PBL were inoculated with HIV at 10 ng virus/10^6 cells/well and incubated with various concentrations of CT3537 for 7 days. Each data point represents the average expression levels of HIV-1 p24-antigen in the cell supernatants measured by ELISA from triplicate samples with error bar indicating the SD.
Stable cell lines 293tar, 293tat and 293tat2 were generated by transfections using conditions described in (Tate et al., FASEB J. 4:227-231, 1990) with the plasmid pHIV.AP alone or along with either pHIV.tat or pSV2tat72, respectively. The assay of HIV-1 p24 antigen expression in the chronically HIV-1-infected promonocytic line U1 after 4 days and in acutely infected peripheral blood lymphocytes (PBL) after 7 days were described (Peterson et al., J. Clin. Invest. 89:574-580, 1992, and Brighty et al., Proc Natl. Acad. Sci. USA 88:7802-7805, 1991). […]

NFκB = NFκB activation in 293tat cells, electrophoretic mobility shift assay; type: cell-based, human; details: CT2576 12 μM, TNF-α 40 ng/ml or IL-1β 1 ng/ml
Protocol: Nuclear extracts (A) from 293tat cells were tested by EMSA for activation of NFκB. A radiolabeled 40-mer covering the NFκB sequences in the HIV promoter was used as a probe. Cells were incubated with CT2576 at 12 μM, human TNF-α at 40 ng/ml or IL-1β at 1 ng/ml, or pre-incubated for 30 min. with CT2576 and then stimulated with TNF-α or IL-1β for 18 hr prior to making extracts. RNA was extracted from 293tat cells (B) after treatment with CT2576 without or with TNF-α or IL-1β for 18 hr. Northern blots analysis were performed using probes derived from AP cDNA and G3PDH cDNA as a control for normalization of mRNA level. AP activity was determined in cell supernatants from the various samples.
NFκB binding activity in nuclear extracts (Dignam et al., Nucleic Acids Res. 11:1475-1489, 1983) of cells was measured by electrophoretic mobility-shift assay (EMSA) (Carthew et al., Cell 43:439-448, 1985) using 5'-labeled double-stranded synthetic DNA with two NF-κB motifs. Northern blot analysis was performed with total RNA run on 1% agarose/formaldehyde gel and probed with ^32 P-labeled cDNA of AP and glyceraldehyde-3-phosphate dehydrogenase (G3PDH).

Row | SMILES | IC50 ([1]; Homo sapiens, 293-EBNA, FIG. 8, read-out: concentration inhibiting AP activity by 50% (CMV assay)) [nM] | inhibition of AP expression (CMV promoter) ([1]; in words) | effect on cell viability / cytotoxicity (293-EBNA cells) | IC50 [2] [nM] | activation of NFκB (NFκB)
1 | CCCCCCCCNCC(O)CCCCCCCCCN1C(=O)CCN(C)C1=O (centres unmarked) [CT1829, 3-(11-octylamino-10-hydroxyundecyl)-1-methyldihydrouracil] | 2000 to 6000 | inhibit CMV promoter driven expression | minimal cytotoxic effects |  | 
2 | CCCCCCCCNCC(O)CCCCCCCCCn1c(=O)c2c(ncn2C)n(C)c1=O (centres unmarked) [CT2576, 1-(11-octylamino-10-hydroxyundecyl)-3,7-dimethylxanthine] |  |  |  | ~1000 | did not inhibit TNF-α dependent activation of NFκB
